# Reference: patent publication US9561228B2 (Celgene Avilomics Research, Inc., priority 2013, dated 2017)
# Target: T1, MEK1 activated ERK1 (Homo sapiens, UniProt P27361)
# T1 construct: purchased Millipore (Billerica, Mass.) 14-439-K
# Assay: Omnia continuous-read kinase assay for potency against MEK1 activated ERK1
# Assay type: biochemical
# Details: MEK1 activated ERK1, ATP at KM; read-out: ERK1 Omnia WT ATP KM IC50
# Method in brief: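 Apparent IC50 came from initial reaction slopes (RFU vs time) plotted against log inhibitor with a variable-slope fit. Reactions were started with ERK1 (4 nM final) added to 50 μM ATP, roughly at its appKM, and 10 μM Sox-conjugated ST17 peptide in 20 mM Tris pH 7.5, 5 mM MgCl2. Fluorescence was monitored every 71 seconds.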
# T1 sequence (P27361 whole entry): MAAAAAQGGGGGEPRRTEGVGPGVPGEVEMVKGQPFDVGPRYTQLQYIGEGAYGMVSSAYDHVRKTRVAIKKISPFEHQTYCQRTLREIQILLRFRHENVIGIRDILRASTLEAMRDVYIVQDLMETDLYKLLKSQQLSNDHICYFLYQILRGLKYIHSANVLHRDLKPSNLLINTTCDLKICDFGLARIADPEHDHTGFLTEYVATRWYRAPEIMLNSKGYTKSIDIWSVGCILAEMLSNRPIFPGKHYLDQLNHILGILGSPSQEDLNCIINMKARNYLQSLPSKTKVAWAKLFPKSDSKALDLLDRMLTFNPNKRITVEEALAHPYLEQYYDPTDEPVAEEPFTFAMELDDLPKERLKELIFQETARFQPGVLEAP
row,SMILES,IC50 [nM]
1,"C=CC(=O)Nc1ccccc1Nc1nc(N[C@H]2CCN(C(C)=O)C2)ncc1C(F)(F)F [Compound I-56, (S)—N-(2-((2-((1-Acetylpyrrolidin-3-yl)amino)-5-(trifluoromethyl)pyrimidin-4-yl)amino)phenyl)acrylamide]",101 to 500
2,"C=CC(=O)Nc1ccccc1Nc1nc(N[C@H]2CCN(C(=O)CO)C2)ncc1C(F)(F)F [Compound I-57, (S)—N-(2-((2-((1-(2-Hydroxyacetyl)pyrrolidin-3-yl)amino)-5-(trifluoromethyl)pyrimidin-4-yl)amino)phenyl)acrylamide]",101 to 500
3,"C=CC(=O)Nc1ccccc1Nc1nc(N[C@H]2CCN(S(C)(=O)=O)C2)ncc1C(F)(F)F [Compound I-58, (S)—N-(2-((2-((1-(Methylsulfonyl)pyrrolidin-3-yl)amino)-5-(trifluoromethyl)pyrimidin-4-yl)amino)phenyl)acrylamide]",101 to 500
4,"C=CC(=O)Nc1ccccc1Nc1nc(N[C@H]2CCN(C(=O)OC)C2)ncc1C(F)(F)F [Compound I-59, (S)-methyl 3-((4-((2-Acrylamidophenyl)amino)-5-(trifluoromethyl)pyrimidin-2-yl)amino)pyrrolidine-1-carboxylate]",501 to 999
5,"C=CC(=O)Nc1ccccc1Nc1nc(N[C@@H]2CCN(C(C)=O)C2)ncc1C(F)(F)F [Compound I-60, (R)—N-(2-((2-((1-Acetylpyrrolidin-3-yl)amino)-5-(trifluoromethyl)pyrimidin-4-yl)amino)phenyl)acrylamide]",501 to 999
6,"C=CC(=O)Nc1cc(C)ccc1Nc1nc(Nc2cc(OC)nc(N3CCN(CC)CC3)c2)ncc1C(F)(F)F [Compound I-89, N-(2-((2-((2-(4-Ethylpiperazin-1-yl)-6-methoxypyridin-4-yl)amino)-5-(trifluoromethyl)pyrimidin-4-yl)amino)-5-methylphenyl)acrylamide]",101 to 500
7,"C=CC(=O)Nc1ccccc1Nc1nc(Nc2cc(F)ccc2C)ncc1C(F)(F)F [Compound I-285, N-(2-((2-((5-Fluoro-2-methylphenyl)amino)-5-(trifluoromethyl)pyrimidin-4-yl)amino)phenyl)acrylamide]",501 to 999
8,"C=CC(=O)Nc1ccccc1Nc1nc(Nc2ccnc(F)c2)ncc1C(F)(F)F [Compound I-287, N-(2-((2-((2-Fluoropyridin-4-yl)amino)-5-(trifluoromethyl)pyrimidin-4-yl)amino)phenyl)acrylamide]",101 to 500
9,"C=CC(=O)Nc1cc(C)ccc1Nc1nc(Nc2ccnc(F)c2)ncc1C(F)(F)F [Compound I-288, N-(2-((2-((2-Fluoropyridin-4-yl)amino)-5-(trifluoromethyl)pyrimidin-4-yl)amino)-5-methylphenyl)acrylamide]",501 to 999
10,"C=CC(=O)Nc1cc(C)ccc1Nc1nc(Nc2cc(C)nc(OC)c2)ncc1C(F)(F)F [Compound I-295, N-(2-((2-((2-methoxy-6-methylpyridin-4-yl)amino)-5-(trifluoromethyl)pyrimidin-4-yl)amino)-5-methylphenyl)acrylamide]",101 to 500
11,"C=CC(=O)Nc1cc(C)ccc1Nc1nc(Nc2cc(OC)ccc2C)ncc1C(F)(F)F [Compound I-341, N-(2-((2-((5-methoxy-2-methylphenyl)amino)-5-(trifluoromethyl)pyrimidin-4-yl)amino)-5-methylphenyl)acrylamide]",501 to 999

# Tested on: HCT116 cells (colorectal carcinoma)
# Assay: Inhibition of cancer cell proliferation, HCT116 (CellTiterGlo, 72 hours)
# Assay type: cell-based
# Details: Homo sapiens, HCT-116
# Method in brief: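 3000 cells per well exposed to 3-fold serial compound dilutions from 5,000 nM (two-fold solution, stock level) for 72 hours at 37° C. CellTiterGlo luminescence converted to cell number via a standard curve; percent inhibition vs untreated wells, GI50 by curve fit.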
row,SMILES,GI50 [nM]
1,"C=CC(=O)Nc1ccccc1Nc1nc(N[C@H]2CCN(C(C)=O)C2)ncc1C(F)(F)F [Compound I-56, (S)—N-(2-((2-((1-Acetylpyrrolidin-3-yl)amino)-5-(trifluoromethyl)pyrimidin-4-yl)amino)phenyl)acrylamide]",101 to 500
2,"C=CC(=O)Nc1ccccc1Nc1nc(N[C@H]2CCN(C(=O)CO)C2)ncc1C(F)(F)F [Compound I-57, (S)—N-(2-((2-((1-(2-Hydroxyacetyl)pyrrolidin-3-yl)amino)-5-(trifluoromethyl)pyrimidin-4-yl)amino)phenyl)acrylamide]",101 to 500
3,"C=CC(=O)Nc1ccccc1Nc1nc(N[C@H]2CCN(S(C)(=O)=O)C2)ncc1C(F)(F)F [Compound I-58, (S)—N-(2-((2-((1-(Methylsulfonyl)pyrrolidin-3-yl)amino)-5-(trifluoromethyl)pyrimidin-4-yl)amino)phenyl)acrylamide]",101 to 500
4,"C=CC(=O)Nc1ccccc1Nc1nc(N[C@H]2CCN(C(=O)OC)C2)ncc1C(F)(F)F [Compound I-59, (S)-methyl 3-((4-((2-Acrylamidophenyl)amino)-5-(trifluoromethyl)pyrimidin-2-yl)amino)pyrrolidine-1-carboxylate]",501 to 999
5,"C=CC(=O)Nc1ccccc1Nc1nc(N[C@@H]2CCN(C(C)=O)C2)ncc1C(F)(F)F [Compound I-60, (R)—N-(2-((2-((1-Acetylpyrrolidin-3-yl)amino)-5-(trifluoromethyl)pyrimidin-4-yl)amino)phenyl)acrylamide]",501 to 999
6,"C=CC(=O)Nc1cc(OC)ccc1Nc1nc(N[C@H]2CCCN(C(=O)CO)C2)ncc1C(F)(F)F [Compound I-64, (S)—N-(2-((2-((1-(2-Hydroxyacetyl)piperidin-3-yl)amino)-5-(trifluoromethyl)pyrimidin-4-yl)amino)-5-methoxyphenyl)acrylamide]",< 100
7,"C=CC(=O)Nc1ccccc1Nc1nc(Nc2cc(C(N)=O)ccc2C)ncc1C(F)(F)F [Compound I-68, 3-(4-(2-Acrylamidophenylamino)-5-(trifluoromethyl)pyrimidin-2-ylamino)-4-methylbenzamide]",< 100
8,"C=CC(=O)Nc1cc(OC)ccc1Nc1nc(Nc2cc(OC)nc(N3CCN(CC)CC3)c2)ncc1C(F)(F)F [Compound I-88, N-(2-((2-((2-(4-Ethylpiperazin-1-yl)-6-methoxypyridin-4-yl)amino)-5-(trifluoromethyl)pyrimidin-4-yl)amino)-5-methoxyphenyl)acrylamide]",< 100
9,"C=CC(=O)Nc1cc(C)ccc1Nc1nc(Nc2cc(OC)nc(N3CCN(CC)CC3)c2)ncc1C(F)(F)F [Compound I-89, N-(2-((2-((2-(4-Ethylpiperazin-1-yl)-6-methoxypyridin-4-yl)amino)-5-(trifluoromethyl)pyrimidin-4-yl)amino)-5-methylphenyl)acrylamide]",< 100
10,"C=CC(=O)Nc1cc(C)ccc1Nc1nc(Nc2cc(OC)ncc2C)ncc1C(F)(F)F [Compound I-90, N-(2-((2-((2-Methoxy-5-methylpyridin-4-yl)amino)-5-(trifluoromethyl)pyrimidin-4-yl)amino)-5-methylphenyl)acrylamide]",501 to 999
11,"C=CC(=O)Nc1cc(OC)ccc1Nc1nc(Nc2cc(OC)nc(N3CCN(C(C)=O)CC3)c2)ncc1C(F)(F)F [Compound I-91, N-(2-((2-((2-(4-Acetylpiperazin-1-yl)-6-methoxypyridin-4-yl)amino)-5-(trifluoromethyl)pyrimidin-4-yl)amino)-5-methoxyphenyl)acrylamide]",< 100
12,"C=CC(=O)Nc1ccccc1Nc1nc(Nc2cc(OC)nc(OC)c2)ncc1C(F)(F)F [Compound I-95, N-(2-((2-((2,6-Dimethoxypyridin-4-yl)amino)-5-(trifluoromethyl)pyrimidin-4-yl)amino)phenyl)acrylamide]",< 100
13,"C=CC(=O)Nc1cc(C)ccc1Nc1nc(N[C@H]2CCCN(C(=O)CO)C2)ncc1Cl [Compound I-140, (S)—N-(2-((5-chloro-2-((1-(2-hydroxyacetyl)piperidin-3-yl)amino)pyrimidin-4-yl)amino)-5-methylphenyl)acrylamide]",< 100
14,"C=CC(=O)Nc1cc(OC)ccc1Nc1nc(Nc2cc(OC)ncc2C)ncc1Cl [Compound I-242, N-(2-((5-chloro-2-((2-methoxy-5-methylpyridin-4-yl)amino)pyrimidin-4-yl)amino)-5-methoxyphenyl)acrylamide]",101 to 500
15,"C=CC(=O)Nc1ccccc1Nc1nc(Nc2cc(OC)nc(N3CCCC3)c2)ncc1C(F)(F)F [Compound I-281, N-(2-((2-((2-Methoxy-6-(pyrrolidin-1-yl)pyridin-4-yl)amino)-5-(trifluoromethyl)pyrimidin-4-yl)amino)phenyl)acrylamide]",< 100
16,"C=CC(=O)Nc1ccccc1Nc1nc(Nc2cc(OC)nc(OCCOC)c2)ncc1C(F)(F)F [Compound I-283, N-(2-((2-((2-Methoxy-6-(2-methoxyethoxyl)pyridin-4-yl)amino)-5-(trifluoromethyl)pyrimidin-4-yl)amino)phenyl)acrylamide]",< 100
17,"C=CC(=O)Nc1cc(OC)ccc1Nc1nc(Nc2cc(OC)ncc2C)ncc1C(F)(F)F [Compound I-284, N-(5-Methoxy-2-((2-((2-methoxy-5-methylpyridin-4-yl)amino)-5-(trifluoromethyl)pyrimidin-4-yl)amino)phenyl)acrylamide]",101 to 500
18,"C=CC(=O)Nc1ccccc1Nc1nc(Nc2cc(NCCOC)nc(OC)c2)ncc1C(F)(F)F [Compound I-286, N-(2-((2-((2-Methoxy-6-((2-methoxyethyl)amino)pyridin-4-yl)amino)-5-(trifluoromethyl)pyrimidin-4-yl)amino)phenyl)acrylamide]",< 100
19,"C=CC(=O)Nc1ccccc1Nc1nc(Nc2cc(OC)nc(N3CCS(=O)(=O)CC3)c2)ncc1C(F)(F)F [Compound I-291, N-(2-((2-((2-(1,1-Dioxidothiomorpholino)-6-methoxypyridin-4-yl)amino)-5-(trifluoromethyl)pyrimidin-4-yl)amino)phenyl)acrylamide]",< 100
20,"C=CC(=O)Nc1cc(C)ccc1Nc1nc(Nc2cc(OC)nc(N3CCN(C(C)=O)CC3)c2)ncc1Cl [Compound I-296, N-(2-((2-((2-(4-acetylpiperazin-1-yl)-6-methoxypyridin-4-yl)amino)-5-chloropyrimidin-4-yl)amino)-5-methylphenyl)acrylamide]",< 100
21,"C=CC(=O)Nc1cc(F)ccc1Nc1nc(Nc2cc(OC)ncc2C)ncc1C(F)(F)F [Compound I-322, N-(5-fluoro-2-((2-((2-methoxy-5-methylpyridin-4-yl)amino)-5-(trifluoromethyl)pyrimidin-4-yl)amino)phenyl)acrylamide]",101 to 500
22,"C=CC(=O)Nc1ccccc1Nc1nc(Nc2cc(OC)nc(N3CCN(C)CC3)c2)ncc1C(F)(F)F [Compound I-324, N-(2-((2-((2-methoxy-6-(4-methylpiperazin-1-yl)pyridin-4-yl)amino)-5-(trifluoromethyl)pyrimidin-4-yl)amino)phenyl)acrylamide]",< 100
23,"C=CC(=O)Nc1cc(C)ccc1Nc1nc(Nc2cc(OC)nc(N3CC(O)C3)c2)ncc1C(F)(F)F [Compound I-328, N-(2-((2-((2-(3-hydroxyazetidin-1-yl)-6-methoxypyridin-4-yl)amino)-5-(trifluoromethyl)pyrimidin-4-yl)amino)-5-methylphenyl)acrylamide]",< 100
24,"C=CC(=O)Nc1cc(OC)ccc1Nc1nc(Nc2cc(OC)nc(N3CCN(C)CC3)c2)ncc1C(F)(F)F [Compound I-334, N-(5-methoxy-2-((2-((2-methoxy-6-(4-methylpiperazin-1-yl)pyridin-4-yl)amino)-5-(trifluoromethyl)pyrimidin-4-yl)amino)phenyl)acrylamide]",< 100
25,"C=CC(=O)Nc1cc(C)ccc1Nc1nc(Nc2cc(OC)cc(OC)c2)ncc1C(F)(F)F [Compound I-339, N-(2-((2-((3,5-dimethoxyphenyl)amino)-5-(trifluoromethyl)pyrimidin-4-yl)amino)-5-methylphenyl)acrylamide]",< 100
